Results on two compounds are retold here after US6559173B1, “3-(heteroarylamino)methylene-1,3-dihydro-2H-indol-2-ones as kinase inhibitors” (Allergan, Inc., priority 2001, dated 2003).

In assay [1] the target is T1, cytoplasmic domain of the human VEGF receptor (VEGFR-2) (Homo sapiens, UniProt P35968).
T1 construct: The cytoplasmic domain of the human VEGF receptor (VEGFR-2) was expressed as a Histidine-tagged fusion protein; His tag (Histidine-tagged fusion); made in house; host or cells: insect cells (engineered baculovirus)
T1 sequence (P35968 786-1356 limits assumed): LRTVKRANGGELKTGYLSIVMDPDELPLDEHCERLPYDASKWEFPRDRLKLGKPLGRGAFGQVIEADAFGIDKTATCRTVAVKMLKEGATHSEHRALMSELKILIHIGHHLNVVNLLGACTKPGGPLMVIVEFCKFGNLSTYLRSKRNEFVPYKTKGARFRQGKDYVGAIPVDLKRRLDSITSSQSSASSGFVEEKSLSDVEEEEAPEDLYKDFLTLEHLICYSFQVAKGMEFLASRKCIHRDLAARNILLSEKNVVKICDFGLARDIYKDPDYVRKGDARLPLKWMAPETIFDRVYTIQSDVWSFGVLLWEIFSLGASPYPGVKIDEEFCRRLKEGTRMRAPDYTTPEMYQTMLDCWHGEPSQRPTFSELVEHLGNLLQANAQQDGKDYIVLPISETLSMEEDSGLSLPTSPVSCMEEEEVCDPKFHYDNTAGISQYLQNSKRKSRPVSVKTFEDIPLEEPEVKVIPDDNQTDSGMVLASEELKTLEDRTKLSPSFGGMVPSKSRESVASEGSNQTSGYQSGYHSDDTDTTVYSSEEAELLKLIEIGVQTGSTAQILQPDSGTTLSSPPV
Kind of assay: KDR Assay. Type of assay: biochemical. The note with it: His-VEGFR-2, 3.6 μM ATP, poly-Glu-Tyr (4:1). As to the method: The cytoplasmic domain of the human VEGF receptor (VEGFR-2) was expressed as a Histidine-tagged fusion protein following infection of insect cells using an engineered baculovirus. His-VEGFR-2 was purified to homogeneity, as determined by SDS-PAGE, using nickel resin chromatography. Kinase assays were performed in 96 well microtiter plates that were coated overnight with 30 μg of poly-Glu-Tyr (4:1) in 10 mM Phosphate Buffered Saline (PBS), pH 7.2-7.4. The plates were incubated with 1% BSA and then washed four times with PBS prior to starting the reaction. Reactions were carried out in 120 μL reaction volumes containing 3.6 μM ATP in kinase buffer (50 mM Hepes buffer pH 7.4, 20 mM MgCl2, 0.1 mM MnCl2 and 0.2 mM Na3VO4). Test compounds were reconstituted in 100% DMSO and added to the reaction to give a final DMSO concentration of 5%. Reactions were initiated by the addition 0.5 ng of purified protein. Following a ten minute incubation at 25° C., the reactions were washed four times with PBS containing 0.05% Tween-20. 100 μl of a monoclonal anti-phosphotyrosine antibody-peroxidase conjugate was diluted 1:10000 in PBS-Tween-20 and added to the wells for 30 minutes. Following four washes with PBS-Tween-20, 100 μl of 0-Phenylenediamine Dihydrochloride in Phosphate-citrate buffer, containing urea hydrogen peroxide, was added to the wells for 7 minutes as a colorimetric substrate for the peroxidase. The reaction was terminated by the addition of 100 μl of 2.5N H2SO4 to each well and read using a microplate ELISA reader set at 492 nm. IC50 values for compound inhibition were calculated directly from graphs of optical density (arbitrary units) versus compound concentration following subtraction of blank values.

In assay [2] the test system is VEGF-induced EBD extravasation. Kind of assay: VEGF-induced Dermal Extravasation in Guinea Pig (Miles Assay). Type of assay: in vivo. The note with it: for in-vivo activity (Miles Assay, Table 3): oral administration; for Miles Assay % inhibition: single oral dose 75 mg/kg, vehicle PEG400. The procedure: VEGF-induced Dermal Extravasation in Guinea Pig (Miles Assay). Male Hartley guinea pigs (300-600 g) were anesthetized with isofluorane, sheared, and given a single oral dose of drug or the respective vehicle. Ten minutes prior to the end of drug treatment, guinea pigs were anesthetized with isofluorane, and 0.5% Evans blue dye (EBD) in PBS (13-15 mg/kg dose of EBD) was injected intravenously. After 5 minutes, triplicate intradermal injections of 100 ng rhVEGF165 in 100 μl PBS and of 100 μl PBS alone were administered on the flank. After 20 minutes, each animal was euthanized with Pentosol, and the skin containing the intradermal injection sites was removed for image analysis.
Using an analog video camera coupled to a PC, an image of each trans-illuminated skin sample was captured, and the integrated optical density of each injection site was measured using ImagePro 4. For each skin sample, the difference between the mean optical density of the VEGF sites and mean optical density of the PBS sites is the measure of VEGF-induced EBD extravasation in that animal. These measured values were averaged per study group to determine the mean VEGF-induced EBD extravasation for each experimental condition, and the group means were then compared to assess inhibition of VEGF-induced EBD extravasation in the drug-treated groups relative to the vehicle-treated controls.

In assay [3] the test system is VEGF induced increases in intracellular calcium levels in HUVEC (human umbilical vein endothelial cells). Kind of assay: VEGF Stimulated Ca++ signal assay (FLIPR). Type of assay: cell-based. The note with it: VEGF 5 ng/mL; for IC50: 0.01 to 10.0 μM; for inhibition at 10 µM: 30 min pre-incubation. As to the method: VEGF Stimulated Ca^++ Signal in vitro
Automated FLIPR (Fluorometric Imaging Plate Reader) technology was used to screen for inhibitors of VEGF induced increases in intracellular calcium levels in fluorescent dye loaded endothelial cells. HUVEC (human umbilical vein endothelial cells) (Clonetics) were seeded in 96-well fibronectin coated black-walled plates overnight @ 37° C./5%CO2. Cells were loaded with calcium indicator Fluo-4 for 45 minutes at 37° C. Cells were washed 4 times (Original Cell Wash, Labsystems) to remove extracellular dye. Test compounds were reconstituted in 100% DMSO and added to the cells to give a final DMSO concentration of 0.1%. For screening, cells were pre-incubated with test agents for 30 minutes, at a single concentration (10 μM) or at concentrations ranging from 0.01 to 10.0 μM followed by VEGF stimulation (5 ng/mL). Changes in fluorescence at 516 nm were measured simultaneously in all 96 wells using a cooled CCD camera. Data were generated by determining max-min fluorescence levels for unstimulated, stimulated, and drug treated samples. IC50 values for test compounds were calculated from % inhibition of VEGF stimulated responses in the absence of inhibitor.

As to `Cc1cccc2c1C(=CNc1cc[nH]n1)C(=O)N2` [Example 6, 4-Methyl-3-[(1H-pyrazol-3-ylamino)-methylene]-1,3-dihydro-indol-2-one], the IC50 in assay [1] is 500 nM. Further, in assay [2], the “in-vivo activity (Miles Assay, Table 3)” value is given as “significant in-vivo activity” and the “Miles Assay % inhibition” value is given as 83%. In assay [3], the IC50 was determined as 1070 nM. In addition, in assay [3] (Homo sapiens), the inhibition at 10 µM was determined as 97.6% and the IC50 is at most 1000 nM.
For `Cc1cc(NC=C2C(=O)Nc3ccc(F)cc32)n[nH]1` [Example 26, 5-Fluoro-3-[(5-methyl-1H-pyrazol-3-ylamino)-methylene]-1,3-dihydro-indol-2-one], the IC50 in assay [1] was 330 nM. In addition, in assay [2], the “in-vivo activity (Miles Assay, Table 3)” value is recorded as “significant in-vivo activity” and the “Miles Assay % inhibition” value was found to be 100%. Besides, in assay [3], the IC50 is 520 nM. In addition, in assay [3] (Homo sapiens), the inhibition at 10 µM is 97.1% and the IC50 was at most 1000 nM.
